Like-named read-outs stand apart in the source and are kept apart here.
How the values were obtained:
[1] = Cell Titer Glo cell viability assay; format: cell-based, human; settings: human, HEK293 cells
Protocol: (§1) Cell viability assays were conducted with HEK293 cells (ATCC) to investigate the compounds’ mammalian cytotoxicity. Cells were cultured according to standard protocols (DMEM, 10% FBS, 1× Penicillin/Streptomycin, 37 °C, 5% CO2). Cell viability was assessed using the Promega CellTiterGlo assay kit. Briefly, 1000 cells were seeded in white half a rea 96-well plates (Greiner) and incubated for 48 h with inhibitors from DMSO stocks (final: 0.1% DMSO) under standard cultivation conditions. Then, the cell titer reagent was added to each well according to the manufacturer’s protocols, and luminescence was measured using a Tecan Spark 10 M plate reader.

HEK293 cells = assay: Cell Titer Glo cell viability assay; format: cell-based, human; settings: 48 h
Protocol: as §1

S. aureus TrmD = target: T1, S. aureus TrmD (Staphylococcus aureus, UniProt Q2FZ43); assay: Aptamer-based MTase enzyme inhibition assay; format: biochemical
T1 construct: made in house; host or cells: E. coli BL21
T1 sequence (Q2FZ43 1-245): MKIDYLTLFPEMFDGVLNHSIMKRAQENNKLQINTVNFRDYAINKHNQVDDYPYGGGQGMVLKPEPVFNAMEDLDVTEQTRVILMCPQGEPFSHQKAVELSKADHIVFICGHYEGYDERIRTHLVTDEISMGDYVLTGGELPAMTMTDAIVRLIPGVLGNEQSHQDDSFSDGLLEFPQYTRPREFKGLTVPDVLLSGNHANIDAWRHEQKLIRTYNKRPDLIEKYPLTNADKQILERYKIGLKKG
Protocol: For the determination of S. aureus TrmD IC50-values, a split aptamer assay according to Nidoieva et al. was employed. The assay was performed in 40 mM Tris HCl, 100 mM NaCl, 10 mM MgCl2, 5% Glycerol, pH 7.5. Enzyme reaction mixtures contained synthetic tRNA^LeuCAG substrate (synthetic tRNA^Leu: 5′-[…]-3′, Genscript, final concentration: 2 μM), S. aureus TrmD (final concentration: 100 nM), SAM (New England Biolabs, final concentration: 2 μM), and the test compounds in varying concentrations (3% DMSO, final volume 10 μL). Pure DMSO was used as a mock treatment reaction control. The assay was carried out in triplicate in black 384-well plates (Greiner). Enzyme reactions were quenched by the addition of 1 μL SDS (3%) after an incubation time of 60 min at room temperature.

E. coli TrmD = target: T2, E. coli TrmD (Escherichia coli, UniProt P0A873); assay: Fluorescence polarization (FP) assay, tracer 3 (Cy5TPD), E. coli TrmD; format: binding
T2 construct: made in house; host or cells: E. coli (the strain received with the pCA24N plasmid)
Protocol: Fluorescence polarization (FP) assays were performed as follows. The assays for H. influenzae TrmD have been described previously. All assays were conducted in technical triplicate using black 96-well half area plates. For the FP assays, a tracer (20 nM Cy5TPD for E. coli and H. influenzae TrmD, 10 nM tracer 4 for S. aureus TrmD) was mixed with the respective enzyme (2 μM E. coli TrmD, 2 μM H. influenzae TrmD, 500 nM S. aureus TrmD) in buffer (E. coli and H. influenzae TrmD: 50 mM HEPES, 500 mM NaCl, 5% Glycerol, pH 7.5, S. aureus TrmD: 40 mM Tris HCl, 100 mM NaCl, 10 mM MgCl2, 5% Glycerol, pH 7.5). The compounds were added in varying concentrations for K D-value determination. For K D-value determination of tracers, the enzyme concentration was varied, and no inhibitory compounds were added (DMSO < 0.5% for TrmDs). The Z-factor for tracer 4 was determined by measuring 48 replicates of the free tracer (positive controls, PC) and 48 replicates of a mixture of enzyme and tracer (negative controls, NC). The Z-factor is defined in terms of the means (μ) and standard deviations (σ) of the positive and negative controls and calculated as Z = 1–(3*(σnc + σpc)/(μnc–μpc)). Fluorescence polarization was measured using a Spark 10 M plate reader (Tecan) equipped with polarization filters and a monochromator setup (λex = 635 nm, λem = 680 nm). Polarization values (mP) were determined from polarization-specific parallel and orthogonal fluorescence intensities. K D-values were calculated in GraphPad Prism 8.0.1 using the four-parameter Hill equation: y(% tracer bound) = bottom + ([ligand]-slope) × (top–bottom)/([ligand]-slope + K Dslope).

[2] = aptamer-based enzyme assay, read-out: IC50 S. aureus TrmD

T2 sequence (P0A873 whole entry): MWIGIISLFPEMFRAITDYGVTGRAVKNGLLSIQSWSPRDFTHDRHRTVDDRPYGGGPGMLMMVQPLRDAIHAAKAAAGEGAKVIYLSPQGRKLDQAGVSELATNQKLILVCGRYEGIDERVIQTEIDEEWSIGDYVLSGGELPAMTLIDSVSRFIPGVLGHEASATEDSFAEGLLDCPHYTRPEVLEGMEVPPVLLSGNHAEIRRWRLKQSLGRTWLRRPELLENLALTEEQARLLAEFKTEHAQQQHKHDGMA

Row | Compound | CC50 at 48 h [1] [µM] | mammalian cytotoxicity HEK293 (HEK293 cells; at 100 μM) | IC50 (S. aureus TrmD; [2]) [µM] | Kd (E. coli TrmD) [µM] | mammalian cytotoxicity HEK293 (HEK293 cells; at >10 μM) | cell viability / mammalian cytotoxicity HEK293 (HEK293 cells; up to 100 μM) | IC50 (S. aureus TrmD) [µM]
1 | N#Cc1cccc(Cn2cc(-c3c[nH]c4nc[nH]c(=O)c34)nn2)c1 [Compound 8b, 3-((4-(4-Oxo-4,7-dihydro-3H-pyrrolo[2,3-d]pyrimidin-5-yl)-1H-1,2,3-triazol-1-yl)methyl)benzonitrile] | > 100 | Slight cytotoxic effects | 3.22 ± 1.8 | > 30 |  |  | 
2 | O=c1[nH]cnc2[nH]cc(-c3cn(CC4CCC5C(CC4)C5(F)F)nn3)c12 (stereo not drawn) [Compound 8c, 5-(1-((8,8-Difluorobicyclo[5.1.0]octan-4-yl)methyl)-1H-1,2,3-triazol-4-yl)-3,7-dihydro-4H-pyrrolo[2,3-d]pyrimidin-4-one] | > 100 | Slight cytotoxic effects | 0.71 ± 0.1 | > 30 |  |  | 
3 | O=c1[nH]cnc2[nH]cc(-c3cn(Cc4ccc5ncccc5c4)nn3)c12 [Compound 8d, 5-(1-(Quinolin-6-ylmethyl)-1H-1,2,3-triazol-4-yl)-3,7-dihydro-4H-pyrrolo[2,3-d]pyrimidin-4-one] | > 100 |  | 0.39 ± 0.07 | > 30 |  |  | 
4 | N[C@@H]1CCC[C@@H]1Cn1cc(-c2c[nH]c3nc[nH]c(=O)c23)nn1 [Compound 8e, 5-(1-(((1R,2R)-2-Aminocyclopentyl)methyl)-1H-1,2,3-triazol-4-yl)-3,7-dihydro-4H-pyrrolo[2,3-d]pyrimidin-4-one] | > 100 |  | 0.48 ± 0.06 | > 30 | Slight cytotoxic effects |  | 
5 | NC(N)=NCCn1cc(-c2c[nH]c3nc[nH]c(=O)c23)nn1 [Compound 8h] |  |  |  | > 30 |  | no mammalian cytotoxicity | 1.16 ± 0.12

Source: article PMC12751012, “Nanoscale Direct-to-Biology Optimization and Structural Insights into Selective S. aureus TrmD Inhibitors” (Journal of Medicinal Chemistry, 2025)
